The values that follow come from a melting point compilation (Tetko et al.; mined from patent text by program, amines drawn as free bases though some values may be those of a salt).

Compound `CC1(C)CCC(C)(C)c2cc(C(=O)CSc3ccc(C(=O)O)cc3)ccc21` displayed a melting point of 175 to 179 °C. For `CC(C)(C)C1=CC(=Nc2ccc(CC#N)cc2)C=C(C(C)(C)C)C1=O` the value was 126 to 128 °C; for `CS(=O)(=O)c1ccc(-c2oc(C3CCCCC3)nc2-c2ccc(F)cc2)cc1`, 127 to 128 °C; for `O=C(O)CCC[C@@H](O)[C@@H](CCc1ccccc1)S(=O)(=O)c1ccccc1` (relative stereo), 100 to 102 °C. As to `COC(OC)c1cnc(-c2ccccc2)[nH]1`, the melting point fell in the range of 158 to 160 °C. Compound `OC1c2ccccc2-c2[nH]nc(-c3ccccc3)c21` (centres undefined) registered a melting point of 269 to 272 °C. The compound `OCCCN1c2ccccc2CCc2sccc21` had a melting point of 73 °C. `CN(N)C(=O)c1ccc(O)c(O)c1`: the melting point lay in the range of 202 to 205 °C. In the case of `O=S(=O)(c1ccc(Cl)cc1)C(Cc1ccccn1)c1cc(F)ccc1F` (centres undefined), the melting point lay in the range of 105 to 107 °C. As for `Clc1cc(N2CCN(CCOc3ccc(Br)cc3)CC2)c(Cl)nn1`, the melting point lay in the range of 124 to 126 °C. Regarding `CC(C)C(c1ccc(O)cc1)N1CCOCC1` (centres undefined), the melting point lay in the range of 142 to 143 °C.

In turn, `Fc1cccc(CSc2nnc(-c3ccnc(Nc4ccccn4)c3)o2)c1` yielded a melting point of 141 to 142 °C.

`C=CCC(CCC=NO)C1=C(O)CC(c2ccc(N)cc2)CC1=O` (centres undefined) returned a melting point of 92 °C. In turn, `COc1ccc(C(=O)CN2CCNC2=O)cc1OC` showed a melting point of 167 °C. As for `O=S(=O)(c1ccccc1)n1ccc2cnccc21`, the melting point was 127 °C. Next, `Fc1ccc(-c2cc(-c3ccc(F)cc3)nc(Nc3ccc(OC(F)(F)F)cc3)n2)cc1`: 148 to 150 °C; `O=C1NCCN1c1cn(-c2cccnc2)nc1Cl`: 167 to 170 °C; `Cc1cc([N+](=O)[O-])c(CC2NC(=O)NC2=O)cc1Cl` (centres undefined): 211 to 214 °C.

For the compound `O=C(O)CCCc1cccc(NC(=O)[C@@H](CS)Cc2ccccc2)c1`, the melting point was in the range of 149 to 152 °C. Turning to `COP(=O)(Cc1c(Cl)c(Cl)c(CP(=O)(OC)OC)c(Cl)c1Cl)OC`, the melting point was in the range of 179 to 181 °C. As to `O=C(O)c1c(C=C2CC2)c2ccccc2n1Cc1cccc(C(F)(F)F)c1`, the melting point was 148 to 150 °C. Compound `O=C(NC(Cc1ccc(OCC2CC2)cc1)C(=O)O)c1cn2cc(-c3ccc(Cl)cc3)ccc2n1` (centres undefined) showed a melting point of 276 °C. The compound `N#Cc1cc(F)cc(-c2ccc3c(c2)C2(CCCC2)C(=O)N3)c1` came in with a melting point of 235 to 237 °C. `Cc1nc(OC(F)F)nc(C)c1N1CCCn2c1nc1c(Cl)ccc(C(OC(F)F)C(F)(F)F)c12` (centres undefined) gave a melting point of 165 to 166 °C.

With `CCN(CC)c1ccc2nc3c4ccccc4c(=Nc4cc(C)on4)cc-3oc2c1`, the melting point fell in the range of 195 to 196 °C. For `O=C(NCc1ccccn1)Nc1nc(C(=O)O)cs1` the value was 220 °C. In turn, `NC(=O)c1cccc(OC2C(C(=O)O)=CC=CN2Cc2ccccc2Cl)c1` (centres undefined) registered a melting point of 220 to 224 °C. As for `COC(=O)CCc1ccc(CNC(=O)[C@@H](CCCNC(N)=N[N+](=O)[O-])NC(=O)C(c2ccccc2)c2ccccc2)cc1`, the melting point lay in the range of 159 to 161 °C.

With `Cc1nc2c(N)nc3c(c2n1CCCCCS(C)(=O)=O)CCCC3`, the melting point fell in the range of 172 to 174 °C. Take `O=C(CCl)Nc1ccc2c(c1NC(=O)c1ccc(F)cc1)C(=O)c1ccccc1C2=O`: the melting point lay within 184 to 185 °C.

With `C[C@@H](Cn1ccc2ccc3ncccc3c21)NC(=O)OC(C)(C)C`, the melting point is 185 °C. On to `CC1(C)CCc2c(ccc3c2C(=O)C(Br)=C(O)C3=O)O1`, for which the melting point lay within 213 to 216 °C. Turning to `CC(C)Oc1ccc([N+](=O)[O-])cc1C(=O)O`, the melting point lay within 124 to 125 °C. `CCOC(=O)c1nn(-c2c(Cl)cc(C(F)(F)F)cc2Cl)cc1OC(F)(F)C(F)Cl` (racemic): the melting point lay within 105 to 106 °C.

In the case of `CNc1nc(-c2ccco2)c2ncn(Cc3ccc(OC)cc3)c2n1`, the melting point lay within 144 to 145 °C. For `OC1CSC(Oc2cccc(-c3cccc(Cl)n3)c2)C(O)C1O` (centres undefined), the melting point was in the range of 180 to 222 °C.

`COc1cccc(NC(SC)=C(C#N)S(=O)(=O)C(C)C)c1` gave a melting point of 107 to 110 °C. Next, `C#CC(O)c1cccc2ccncc12` (centres undefined): 138 to 139 °C; `COC(=O)C[C@H](O)C[C@H](O)C=Cc1c(-c2ccc(F)cc2)c(-c2ccc(F)cc2)c(C(=O)Nc2ccc(S(N)(=O)=O)cc2)n1C(C)C`: 208 to 210 °C; `Cc1c(C=O)c2c(c(C)c1NC(=O)CC(C)(C)C)CC(C)(C)O2`: 180 to 181 °C.

Turning to `C=COc1nc2c(c3ccccc13)c1cc(Cl)ccc1n2C`, the melting point fell in the range of 121 to 124 °C.

`CNCC1=C(C#N)C(c2cccc(C#N)c2Br)c2c[nH]nc2N1` (centres undefined) yielded a melting point of 258 °C. With `CN1C(=N)N(c2ccc(Cl)cc2)CC1=O`, the melting point lay in the range of 182 to 184 °C.

On to `CCCOc1ccccc1-c1[nH]c(=O)c(C#N)cc1C`, for which the melting point worked out at 213 °C. `CCOC(=O)CCC(=O)c1ccc(O)c(O)c1` yielded a melting point of 116 to 117 °C. Next, `Cc1nc(N)c2nc(CO)n(NC(C)C)c2c1C`: 257 to 259 °C; `CCOC(=O)C1Cc2c(OC)cc(Cl)c(OC)c2CO1` (centres undefined): 95 °C; `COCCOc1cc(N(C)S(=O)(=O)c2ccccn2)c2[nH]c(C3=NCC(CC(=O)O)S3)cc2c1` (centres undefined): 107 to 109 °C. The compound `COc1cc(C)c(CCCCCCCCCCCCCCCCCCCCCC(=O)O)c(O)c1OC` yielded a melting point of 67 to 68 °C.

As for `CC(O)c1ccc(C2=CCCCC2)cc1` (centres undefined), the melting point lay in the range of 60 to 62 °C. In the case of `CC(C)n1nc(-c2sc(NC(=O)CNCc3cccnc3)nc2-c2ccccc2)ccc1=O`, the melting point is 156 to 158 °C.

On to `CCOC(=O)C=Cc1ccc(F)cc1F`, for which the melting point is 40 to 40.5 °C. In turn, `Cc1ccc(CN2CCOCC2)cn1` displayed a melting point of 51 to 52 °C. `CCN(CC)CCNS(=O)(=O)c1ccc(Nc2ncnc3ccc(Cl)cc23)cc1` registered a melting point of 110 to 113 °C. For `Cc1ccccc1C1c2cc(Cl)ccc2OC(=O)C1C(=O)N(C)Cc1cc(C(F)(F)F)cc(C(F)(F)F)c1` (centres undefined) the value was 148 to 149 °C; for `CCCCCCCCCCOc1ccc2c(c1CCC)OC(CCC(=O)O)(CCC(=O)O)CC2=O`, 144 to 146 °C; for `CC(C)(C)OC(=O)N[C@@H](CCC(=O)Oc1ccc(-c2nn(C3CCCC3)c3c(F)cccc23)cc1)C(=O)OC(C)(C)C`, 92 to 93 °C. The compound `Cn1c(/C=C/CO)c(-c2ccccc2)c2ccccc2c1=O` displayed a melting point of 209 °C.

The compound `CCc1[nH]c(=O)[nH]c1C(=O)C(C)C` registered a melting point of 206 to 208 °C. In the case of `O=C(O)CCCC=C(c1cccnc1)c1cccc(NC(=S)Nc2ccc(Cl)cc2Cl)c1`, the melting point lay within 154 to 155 °C. For the compound `CN1C(=O)C(Br)=C(c2c[nH]c3c(OC(c4ccccc4)c4ccccc4)cccc23)C1=O`, the melting point is 205 °C. Take `CCn1c(=O)n(OCc2ccccc2)c(=O)c2cc(F)c(N3CCC(NC(=O)OC(C)(C)C)C3)nc21` (centres undefined): the melting point was in the range of 157 to 159 °C.

Compound `CSc1ccc(CCN2CCN(C(=O)c3ccc(N(CCOC(C)C)C(=O)CCl)cc3)CC2)cc1` yielded a melting point of 115 to 116 °C. `C[C@H](O)C#Cc1cc(CN2CCOCC2)cc2c(=O)c(C(=O)NCc3ccc(Cl)cc3)cn(C)c12`: the melting point fell in the range of 158 to 161 °C. On to `CCCC12CCC3C4=C(CCC3C1CCC2=O)CC(OC)=CC4` (centres undefined), for which the melting point fell in the range of 128 to 131 °C. Consider `Cc1nc2c(O)c(CCC(=O)c3cccs3)c(C(=O)N(C)C)cn2c1C`, for which the melting point worked out at 234 °C. Take `CC(=O)CCCCOCCCc1ccc(N2CCCC2)cc1`: the melting point lay in the range of 30 to 31 °C. In turn, `CCOC(=O)CCc1cn(Cc2ccc(OCc3nc(-c4ccccc4)oc3C)cc2)nc1-c1ccc(F)cc1` registered a melting point of 93 to 94 °C.

Turning to `CNC(=S)N1CCc2[nH]cnc2C1c1cccs1` (centres undefined), the melting point was found to be 215 °C. In turn, `CCCn1c(=O)[nH]c2c(C)ccc(OCC(O)CN3CCC(COc4ccccc4)CC3)c21` (centres undefined) gave a melting point of 91 to 93 °C.

Compound `FC(F)(F)c1ccc(C(Cl)=NN=Cc2ccccc2)cc1` had a melting point of 95 to 96 °C.

The compound `O=S1(=O)N=C(NC2CC2)Nc2cc(Cl)sc21` had a melting point of 272 to 273 °C. The compound `COC(=O)c1sc(Nc2ccc(Cl)cc2)nc1C` showed a melting point of 172 to 173 °C. In turn, `O=C(Cc1ccccc1F)N1C(=O)OC[C@H]1c1ccccc1` displayed a melting point of 110 to 111 °C. As for `Cc1cc(=O)c(OCc2ccccc2)c(C(=O)NC2CCC2)o1`, the melting point was in the range of 69.3 to 71 °C. In the case of `COC(=O)c1ccc(N)cc1C(=O)OC`, the melting point fell in the range of 83 to 85 °C. Turning to `CCOC(=O)c1ccc(N2CCN(c3ccncc3)CC2)cc1`, the melting point lay in the range of 162 to 164 °C. On to `Oc1ccc2c(c1)nnc1ccccc12`, for which the melting point lay within 274 to 277 °C.

As for `CC(C)CC(=O)c1c(-c2ccc3cc(O)cc(Br)c3c2)oc2ccccc12`, the melting point is 160 to 161 °C. For the compound `O=C(O)Cc1cc2c(cc1Cc1ccccc1)OCO2`, the melting point lay in the range of 116 to 117 °C. For `O=C(NCc1ccccc1)c1[nH]c2ccc(Cl)cc2c1S(=O)(=O)c1ccccc1` the value was 249 to 251 °C. On to `Cc1cc(Cc2ccccc2)nc(Nc2ccc(C(=O)NN)c(F)c2)n1`, for which the melting point lay in the range of 191 to 193 °C. Take `CCOc1cc(C=C2SC(=S)N(N(C)C)C2=O)ccc1O`: the melting point lay within 194 to 198 °C.

`Cn1cccc1CCNC(=O)Cn1c(-c2ccc(Cl)cc2)nc2cccnc21` returned a melting point of 171 to 172 °C. Next, `COCn1cnc(-c2ccc(OC)cc2)c1-c1ccc(OC)cc1`: 99 to 101 °C; `CN1CCN(CCCn2cc(Br)c3c4c(c(-c5ccccc5Cl)cc32)C(=O)NC4=O)CC1`: 150 to 152 °C.

Regarding `Cc1ccc2nc(CCl)n3cnnc3c2c1`, the melting point came to 175 °C. For `CCN(CC)S(=O)(=O)c1ccc(C=CC(C)(O)C(F)(F)F)cc1` (centres undefined), the melting point is 112 to 117 °C. `Clc1ccc(N2CCN(CCC3OCCc4cc(Br)ccc43)CC2)cc1` (centres undefined) displayed a melting point of 94 to 96 °C.

What is called melting point is the temperature of the solid-liquid transition.
